Series [1] concerns LPS-induced NO production of mouse microglia cells (BV-2). The series can be described thus: LPS-induced NO production in BV-2 microglia. The series is classed as cell-based. Particulars: for NO production: 10 μM compound, LPS-induced BV-2 cells.
A further series concerns the target huBuChE (Homo sapiens, UniProt P06276). Kind of series: huBuChE inhibition, modified Ellman's method. Type of series: biochemical.
For another series, the target named is eeAChE (Electrophorus electricus, UniProt O42275). Kind of series: eeAChE inhibition, modified Ellman's method. Type of series: biochemical, electric eel. (In general: In Ellman's method for cholinesterases, released thiocholine reacts with DTNB.)
Chain of eeAChE (O42275 24-633): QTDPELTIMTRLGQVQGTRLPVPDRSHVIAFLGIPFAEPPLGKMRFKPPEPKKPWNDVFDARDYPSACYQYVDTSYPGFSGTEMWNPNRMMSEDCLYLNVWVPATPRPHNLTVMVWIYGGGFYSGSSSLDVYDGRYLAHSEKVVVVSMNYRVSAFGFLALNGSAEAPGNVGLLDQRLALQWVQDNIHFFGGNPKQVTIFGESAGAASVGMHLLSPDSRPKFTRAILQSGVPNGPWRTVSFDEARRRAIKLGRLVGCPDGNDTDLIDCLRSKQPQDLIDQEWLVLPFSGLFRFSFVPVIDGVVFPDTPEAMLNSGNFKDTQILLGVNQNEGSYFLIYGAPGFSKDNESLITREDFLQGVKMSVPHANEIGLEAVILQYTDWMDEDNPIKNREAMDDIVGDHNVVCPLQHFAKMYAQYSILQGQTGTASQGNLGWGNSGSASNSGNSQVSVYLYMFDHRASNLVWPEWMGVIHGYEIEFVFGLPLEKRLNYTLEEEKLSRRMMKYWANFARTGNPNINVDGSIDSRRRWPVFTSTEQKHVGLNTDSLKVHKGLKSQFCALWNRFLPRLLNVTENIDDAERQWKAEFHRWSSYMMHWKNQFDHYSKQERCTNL
The target in a further series is eqBuChE (Equus caballus, UniProt P81908). The series can be described thus: eqBuChE inhibition, modified Ellman's method. Type of series: biochemical, equine.
Chain of eqBuChE (P81908 whole entry, the tested form may be a part): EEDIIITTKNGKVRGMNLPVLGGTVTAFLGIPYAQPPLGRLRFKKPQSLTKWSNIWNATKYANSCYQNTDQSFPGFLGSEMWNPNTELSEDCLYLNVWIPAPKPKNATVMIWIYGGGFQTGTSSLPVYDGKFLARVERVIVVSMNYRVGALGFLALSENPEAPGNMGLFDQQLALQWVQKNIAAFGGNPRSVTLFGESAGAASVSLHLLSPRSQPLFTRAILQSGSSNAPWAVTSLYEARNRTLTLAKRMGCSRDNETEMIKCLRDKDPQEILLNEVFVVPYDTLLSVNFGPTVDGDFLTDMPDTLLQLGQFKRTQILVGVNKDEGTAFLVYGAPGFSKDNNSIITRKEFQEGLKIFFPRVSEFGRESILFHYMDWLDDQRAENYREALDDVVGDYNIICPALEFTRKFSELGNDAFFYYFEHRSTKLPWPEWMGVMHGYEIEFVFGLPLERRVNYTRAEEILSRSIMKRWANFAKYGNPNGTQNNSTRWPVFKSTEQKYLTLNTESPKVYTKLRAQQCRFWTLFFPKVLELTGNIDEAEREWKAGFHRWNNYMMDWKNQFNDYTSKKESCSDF
Series [2] can be described thus: PAMPA-BBB in vitro blood-brain barrier permeation assay. Particulars: for Papp at 10 h, 25 μg/mL: PAMPA, pH 7.4; for CNS (±): PAMPA-BBB classification from Pe. Background: The PAMPA barrier holds no transporters, so it reflects passive diffusion.
For series [3] the following is noted: PAMPA-BBB reported values; ref [35],[36]; cited from earlier work.
In series [4] the test system is scopolamine-induced cognitive impairment mouse model. The series can be described thus: Morris water maze test in scopolamine-induced cognitive impairment mouse model. Type of series: in vivo, C57BL/6J mice. Particulars: 1 mg/kg oral once daily, scopolamine 5 mg/kg i.p.

A value given as a limit tells only on which side of the number the result lay.

Chain of huBuChE (P06276 29-602): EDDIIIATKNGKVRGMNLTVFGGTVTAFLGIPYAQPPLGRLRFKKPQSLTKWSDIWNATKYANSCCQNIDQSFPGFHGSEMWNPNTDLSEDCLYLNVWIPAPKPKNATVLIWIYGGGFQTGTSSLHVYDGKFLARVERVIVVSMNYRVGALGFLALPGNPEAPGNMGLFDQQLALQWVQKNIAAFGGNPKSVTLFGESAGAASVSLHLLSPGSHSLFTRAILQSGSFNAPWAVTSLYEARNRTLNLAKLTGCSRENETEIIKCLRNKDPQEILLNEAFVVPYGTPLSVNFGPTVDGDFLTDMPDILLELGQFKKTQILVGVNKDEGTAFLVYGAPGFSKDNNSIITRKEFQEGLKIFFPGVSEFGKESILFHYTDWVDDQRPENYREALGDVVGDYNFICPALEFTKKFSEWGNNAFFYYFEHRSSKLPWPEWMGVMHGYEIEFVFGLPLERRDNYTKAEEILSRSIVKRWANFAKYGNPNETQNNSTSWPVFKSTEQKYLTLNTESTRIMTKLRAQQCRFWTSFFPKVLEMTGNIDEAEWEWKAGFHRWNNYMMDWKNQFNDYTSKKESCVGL

The IC50 is the midpoint of a concentration-inhibition curve. Lower therefore signals greater potency. As to `Cc1cc(=O)c(OCc2ccccc2)c(/C=C/c2cccc(OC(=O)N(C)C)c2)o1` [Compound 7a, (E)-3–(2-(3-(benzyloxy)-6-methyl-4-oxo-4H-pyran-2-yl)vinyl)phenyl dimethylcarbamate], in series [1], the NO production amounted to 90.31%. For the same compound, the values for the IC50 against huBuChE, at eeAChE and against eqBuChE were 99.4 ± 20.6 nM, more than 20000 nM and 24.6 ± 6.66 nM, respectively.
As to `CCN(C)C(=O)Oc1cccc(/C=C/c2oc(C)cc(=O)c2OCc2ccccc2)c1` [Compound 7b, (E)-3–(2-(3-(benzyloxy)-6-methyl-4-oxo-4H-pyran-2-yl)vinyl)phenyl ethyl(methyl)carbamate], the figures for the IC50 at huBuChE, against eeAChE and at eqBuChE were 631 ± 155 nM, more than 20000 nM and 157 ± 13.3 nM, respectively.
On the same counts, the results for `CCN(CC)C(=O)Oc1cccc(/C=C/c2oc(C)cc(=O)c2OCc2ccccc2)c1` [Compound 7c, (E)-3–(2-(3-(benzyloxy)-6-methyl-4-oxo-4H-pyran-2-yl)vinyl)phenyl diethylcarbamate] are more than 10000 nM, more than 20000 nM and 652 ± 44.5 nM.
In the case of `Cc1cc(=O)c(OCc2ccccc2)c(/C=C/c2cccc(OC(=O)N(C(C)C)C(C)C)c2)o1` [Compound 7d, (E)-3–(2-(3-(benzyloxy)-6-methyl-4-oxo-4H-pyran-2-yl)vinyl)phenyl diisopropylcarbamate], the NO production in series [1] was determined as 80.01%. Besides, the IC50 against huBuChE is more than 10000 nM; at eeAChE, more than 20000 nM; on eqBuChE, 8530 ± 314 nM.
For `Cc1cc(=O)c(OCc2ccccc2)c(/C=C/c2cccc(OC(=O)N(c3ccccc3)c3ccccc3)c2)o1` [Compound 7e, (E)-3–(2-(3-(benzyloxy)-6-methyl-4-oxo-4H-pyran-2-yl)vinyl)phenyl diphenylcarbamate], in that order: 106.16%, more than 10000 nM, more than 20000 nM and more than 10000 nM.
As for `Cc1cc(=O)c(OCc2ccccc2)c(/C=C/c2cccc(OC(=O)N3CCCC3)c2)o1` [Compound 7f, (E)-3–(2-(3-(benzyloxy)-6-methyl-4-oxo-4H-pyran-2-yl)vinyl)phenyl pyrrolidine-1-carboxylate], the half-inhibitory concentration (IC50) against huBuChE is 156 ± 36 nM; against eeAChE it was more than 20000 nM; against eqBuChE it was 31.4 ± 5.97 nM.
In the case of `Cc1cc(=O)c(OCc2ccccc2)c(/C=C/c2cccc(OC(=O)N3CCCCC3)c2)o1` [Compound 7g, (E)-3–(2-(3-(benzyloxy)-6-methyl-4-oxo-4H-pyran-2-yl)vinyl)phenyl piperidine-1-carboxylate], the NO production in series [1] is on record as 90.09%. Moreover, the values for the IC50 against huBuChE, on eeAChE and at eqBuChE were 38.7 ± 2.08 nM, more than 20000 nM and 15.3 ± 0.75 nM, respectively.
In the case of `Cc1cc(=O)c(OCc2ccccc2)c(/C=C/c2cccc(OC(=O)N3CCOCC3)c2)o1` [Compound 7h, (E)-3–(2-(3-(benzyloxy)-6-methyl-4-oxo-4H-pyran-2-yl)vinyl)phenyl morpholine-4-carboxylate], the concentration for half-maximal inhibition (IC50) was more than 10000 nM at huBuChE, more than 20000 nM against eeAChE and 72.6 ± 9.39 nM at eqBuChE.
On to `Cc1cc(=O)c(OCc2ccccc2)c(/C=C/c2cccc(OC(=O)N3CCC(Cc4ccccc4)CC3)c2)o1` [Compound 7i, (E)-3–(2-(3-(benzyloxy)-6-methyl-4-oxo-4H-pyran-2-yl)vinyl)phenyl 4-benzylpiperidine-1-carboxylate], for which the concentration for half-maximal inhibition (IC50) against huBuChE was 374 ± 6.45 nM; at eeAChE, more than 20000 nM; against eqBuChE, 75.2 ± 11.9 nM.
With `Cc1cc(=O)c(OCc2ccccc2)c(/C=C/c2cccc(OC(=O)N3CCN(Cc4ccccc4)CC3)c2)o1` [Compound 7j, (E)-3–(2-(3-(benzyloxy)-6-methyl-4-oxo-4H-pyran-2-yl)vinyl)phenyl 4-benzylpiperazine-1-carboxylate], the IC50 was 733 ± 59.8 nM at huBuChE, more than 20000 nM against eeAChE and 31.8 ± 6.92 nM at eqBuChE.
In general, inhibition refers to the percentage by which the read-out fell short of the control. For `Cc1cc(=O)c(OCc2ccccc2)c(/C=C/c2cccc(OCC(=O)N3CCCCC3)c2)o1` [Compound 7k, (E)-3-(benzyloxy)-6-methyl-2–(3–(2-oxo-2-(piperidin-1-yl)ethoxy)styryl)-4H-pyran-4-one], the NO production in series [1] was determined as 64.59%. Besides, the inhibition at 10 µM in series [1] (Mus musculus, BV-2, read-out: NO inhibition) turned out to be 35.4%. Also, the IC50 was 486 ± 46.2 nM on huBuChE, more than 20000 nM against eeAChE and 1430 ± 131 nM against eqBuChE.
As for `O=C(Oc1cccc(/C=C/c2occc(=O)c2OCc2ccccc2)c1)N1CCCCC1` [Compound 7l, (E)-3–(2-(3-(benzyloxy)-4-oxo-4H-pyran-2-yl)vinyl)phenyl piperidine-1-carboxylate], the IC50 at huBuChE is 6.93 ± 1.57 nM; against eeAChE, more than 20000 nM; against eqBuChE, 8.1 ± 2.75 nM.
Consider `O=C(Oc1cccc(/C=C/c2oc(CO)cc(=O)c2OCc2ccccc2)c1)N1CCCCC1` [Compound 7m, (E)-3–(2-(3-(benzyloxy)-6-(hydroxymethyl)-4-oxo-4H-pyran-2-yl)vinyl)phenyl piperidine-1-carboxylate], for which the NO production in series [1] was found to be 76.97%. The IC50 against huBuChE is 16.5 ± 5.44 nM; against eeAChE it was more than 20000 nM; at eqBuChE it was 5.22 ± 1.72 nM.
Regarding `Cc1cc(=O)c(OCc2ccc3ccccc3c2)c(/C=C/c2cccc(OC(=O)N3CCCCC3)c2)o1` [Compound 7n, (E)-3–(2-(6-methyl-3-(naphthalen-2-ylmethoxy)-4-oxo-4H-pyran-2-yl)vinyl)phenyl piperidine-1-carboxylate], the figures for the half-maximal inhibitory concentration (IC50) at huBuChE, at eeAChE and against eqBuChE were 39.4 ± 4.2 nM, more than 20000 nM and 18.9 ± 5.98 nM, respectively.
Regarding `Cc1cc(=O)c(OCc2ccc(-c3ccccc3)cc2)c(/C=C/c2cccc(OC(=O)N3CCCCC3)c2)o1` [Compound 7o, (E)-3–(2-(3-([1,1′-biphenyl]-4-ylmethoxy)-6-methyl-4-oxo-4H-pyran-2-yl)vinyl)phenyl piperidine-1-carboxylate], the half-inhibitory concentration (IC50) at huBuChE is 37.9 ± 5.37 nM; on eeAChE, more than 20000 nM; on eqBuChE, 19.2 ± 1.91 nM.
For `Cc1cc(=O)c(OCc2ccccc2)c(-c2ccc3ccc(OC(=O)N4CCCCC4)cc3c2)o1` [Compound 7q, 7–(3-(Benzyloxy)-6-methyl-4-oxo-4H-pyran-2-yl)naphthalen-2-yl piperidine-1-carboxylate], in that order: 230 ± 29.9 nM, more than 20000 nM and 41.7 ± 11.3 nM.
For `Cc1cc(=O)c(OCc2ccccc2)c(-c2ccc(-c3cccc(OC(=O)N4CCCCC4)c3)cc2)o1` [Compound 7r, 4′-(3-(Benzyloxy)-6-methyl-4-oxo-4H-pyran-2-yl)-[1,1′-biphenyl]-3-yl piperidine-1-carboxylate], the concentration for half-maximal inhibition (IC50) on huBuChE is 651 ± 157 nM; at eeAChE, more than 20000 nM; on eqBuChE, 94.3 ± 20.9 nM.
`Cc1cc(=O)c(OCc2ccccc2)c(CCc2cccc(OC(=O)N3CCCCC3)c2)o1` [Compound 7s, 3–(2-(3-(Benzyloxy)-6-methyl-4-oxo-4H-pyran-2-yl)ethyl)phenyl piperidine-1-carboxylate] gave an NO production in series [1] of 77.77%. Besides, the concentration for half-maximal inhibition (IC50) against huBuChE is 11 ± 1.7 nM; against eeAChE, more than 20000 nM; at eqBuChE, 12.3 ± 3.12 nM.
As a reminder, the Papp is the rate of passage across a membrane or cell layer, normalised by area and donor concentration. For the compound `CCn1cc(C(=O)O)c(=O)c2cc(F)c(N3CCNCC3)cc21` [Norfloxacin], in series [2], the Papp at 10 h, 25 μg/mL was found to be 0.18 ± 0.03 ×10⁻⁶ cm/s and the “CNS (±)” value is reported as “CNS - (CNS -: (low BBB permeability), Pe (×10^−6 cm/s) < 2.03)”. In series [3], the “Pe(ref.)” value is 1e-07 cm/s.
As for `CN1C(C(=O)Nc2ccccn2)=C(O)c2ccccc2S1(=O)=O` [Piroxicam], in series [2], the Papp at 10 h, 25 μg/mL came out at 2.16 ± 0.04 ×10⁻⁶ cm/s and the “CNS (±)” value is reported as “CNS +/-”. Also, the “Pe(ref.)” value in series [3] is 2.5e-06 cm/s.
Regarding `CCN(C)C(=O)Oc1cccc([C@H](C)N(C)C)c1` [Rivastigmine, reference compound], the “escape latency to the platform” value in series [4] (fifth day of training trials) was determined as 31.15 s. In series [4] (last day without platform), the “number of crossing the platform” value worked out at 3.0 times.
Take `CN1C(C(=O)Nc2ccccn2)=C(O)c2sccc2S1(=O)=O` [Tenoxicam]: in series [2], the Papp at 10 h, 25 μg/mL turned out to be 0.35 ± 0.16 ×10⁻⁶ cm/s and the “CNS (±)” value is “CNS - (CNS -: (low BBB permeability), Pe (×10^−6 cm/s) < 2.03)”. In addition, the “Pe(ref.)” value in series [3] is 1e-07 cm/s.
Turning to `Cn1c(=O)c2[nH]cnc2n(C)c1=O` [Theophylline], the “Pe(ref.)” value in series [3] is reported as 0.12 ± 0.01 ×10^−6 cm/s.

Values taken from article PMC10878344 (Journal of Enzyme Inhibition and Medicinal Chemistry, 2024).
